How the values were obtained:
[1] = biological target: T1, Melatonin receptor type 1B (Homo sapiens, UniProt P49286); assay: Displacement of 2-[125I]iodomelatonin from human cloned MT2 receptor expressed in mouse NIH-3T3 cell membrane; assay type: cell membranes, NIH3T3
T1 sequence (P49286 whole entry): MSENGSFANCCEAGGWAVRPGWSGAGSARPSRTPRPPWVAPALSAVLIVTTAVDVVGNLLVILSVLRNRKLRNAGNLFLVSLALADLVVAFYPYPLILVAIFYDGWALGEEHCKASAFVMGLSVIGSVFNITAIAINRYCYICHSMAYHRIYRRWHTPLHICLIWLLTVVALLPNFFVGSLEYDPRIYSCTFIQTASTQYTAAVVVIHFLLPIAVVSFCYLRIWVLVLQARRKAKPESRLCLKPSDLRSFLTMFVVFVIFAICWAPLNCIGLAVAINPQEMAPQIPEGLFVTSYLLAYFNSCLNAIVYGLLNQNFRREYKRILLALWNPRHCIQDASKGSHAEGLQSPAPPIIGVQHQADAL

[2] = biological target: T2, Melatonin receptor type 1A (Homo sapiens, UniProt P48039); assay: Displacement of 2-[125I]iodomelatonin from human cloned MT1 receptor expressed in mouse NIH-3T3 cell membrane; assay type: cell membranes, NIH3T3
T2 sequence (P48039 whole entry): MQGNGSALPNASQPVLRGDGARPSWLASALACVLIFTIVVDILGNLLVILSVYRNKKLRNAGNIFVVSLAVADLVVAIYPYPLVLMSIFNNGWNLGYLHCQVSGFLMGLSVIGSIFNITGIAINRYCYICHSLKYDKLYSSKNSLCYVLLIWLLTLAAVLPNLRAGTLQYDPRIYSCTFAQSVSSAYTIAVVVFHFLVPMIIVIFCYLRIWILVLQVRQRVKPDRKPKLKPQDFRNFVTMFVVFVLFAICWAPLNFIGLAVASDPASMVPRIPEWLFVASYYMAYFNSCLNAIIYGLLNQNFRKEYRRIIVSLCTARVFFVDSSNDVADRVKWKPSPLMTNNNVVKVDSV

[3] = biological target: T2, Melatonin receptor type 1A; assay: Intrinsic activity at human cloned MT1 receptor expressed in mouse NIH-3T3 cells assessed as stimulation of [35S]GTPgammaS binding relative to melatonin; assay type: functional, cell-based; settings: NIH3T3
[4] = biological target: T3, Melatonin receptor type 1B (Homo sapiens) (UniProt P49286); assay: Intrinsic activity at human cloned MT2 receptor expressed in mouse NIH-3T3 cells assessed as stimulation of [35S]GTPgammaS binding relative to melatonin; assay type: functional, cell-based; settings: NIH3T3
T3 sequence (whole entry): T1 sequence (P49286 whole entry)

Homo sapiens = species: Homo sapiens; assay: Selectivity index, ratio of Ki for human cloned MT2 receptor to Ki for human cloned MT1 receptor

Row | SMILES | Ki [1] | Ki [2] | Intrinsic activity [3] | Intrinsic activity [4] | Ratio Ki (Homo sapiens)
1 | COc1cccc(N(CCCCCCCCCCN(CCNC(C)=O)c2cccc(OC)c2)CCNC(C)=O)c1 | 309 nM | 380 nM | 0.12 | 0.37 | 0.8
2 | CC(=O)NCCN(C)c1cccc(OCCCCOc2cccc(N(C)CCNC(C)=O)c2)c1 | 1000 nM | 42.7 nM | 0.21 | 0.18 | 23
3 | CC(=O)NCCN(C)c1cccc(OCCCCCCOc2cccc(N(C)CCNC(C)=O)c2)c1 | 182 nM | 3.39 nM | 0.44 | 0.33 | 54
4 | CC(=O)NCCN(C)c1cccc(OCCCOc2cccc(N(C)CCNC(C)=O)c2)c1 | 2090 nM | 20.4 nM | 0.26 | 0.33 | 102
5 | CC(=O)NCCN(C)c1cccc(OCCCCCCCCOc2cccc(N(C)CCNC(C)=O)c2)c1 | 93.3 nM | 20 nM | 0.47 | 0.38 | 4.7
6 | CC(=O)NCCN(C)c1cccc(OCCCCCOc2cccc(N(C)CCNC(C)=O)c2)c1 | 813 nM | 57.5 nM | 0.46 | 0.64 | 14
7 | COc1cccc(N(CCNC(C)=O)C(=O)CCCCC(=O)N(CCNC(C)=O)c2cccc(OC)c2)c1 | 245 nM | 288 nM | 0.94 | 0.91 | 0.85
8 | COc1cccc(N(CCCCCCN(CCNC(C)=O)c2cccc(OC)c2)CCNC(C)=O)c1 | 36.3 nM | 741 nM | -0.04 | -0.09 | 0.05
9 | CC(=O)NCCN(C)c1cccc(OCCCCCCCCCCOc2cccc(N(C)CCNC(C)=O)c2)c1 | 40.7 nM | 3.98 nM | 0.42 | 0.57 | 10
10 | CC(=O)NCCN(C)c1cccc(OCCCCCCOc2ccccc2)c1 | 158 nM | 14.5 nM | 0.49 | 0.54 | 11

From ChEMBL document CHEMBL1811841 (Bioorg Med Chem, 2011)
